Experimental data taken from PMC7346179, “Fe Porphyrin-Based SOD Mimic and Redox-Active Compound, (OH)FeTnHex-2-PyP^4+, in a Rodent Ischemic Stroke (MCAO) Model: Efficacy and Pharmacokinetics as Compared to Its Mn Analogue, (H2O)MnTnHex-2-PyP^5+” (Antioxidants, 2020).
“And” between values parts separate entries of the source, which are not always exact repeats. Equal values may be shown once.

What was measured:
[1] = cited from earlier work
[2] = mouse, in vivo; cited from earlier work
[3] = in vivo; cited from earlier work
rat MCAO stroke model = experiment: 7-day rat MCAO efficacy study; assay type: in vivo, rats; details: 0.225 mg/kg twice per day 7 days
Experimental: The 7-day rat MCAO study was done as described in [9]. The 250–275 g Wistar rats were used as another species is a requirement for preclinical stroke research. The duration of the right MCAO was 90 min. […] The first dose was given IV slowly via the […] at 5 min after ischemia/reperfusion. The following doses were given SC. At day 7 post-injury, a person blinded to the treatment groups assessed the neurological deficit and then brains were harvested for infarct volume measurements.

[4] = system: rat middle cerebral artery occlusion (MCAO) stroke model; details: cited from earlier work
mice [5] = details: mouse, in vivo, ip, 10 mg/kg; cited from earlier work
[6] = 7-day PK study in healthy rats; assay type: in vivo; details: healthy rats
Experimental: Samples were prepared as described in [10] with modifications to accommodate the small tissue sizes and enhance the detection sensitivity. Quantitative liquid chromatography electrospray-ionization tandem mass spectrometry (LCMS/MS) analysis was performed on a Shimadzu 20A series HPLC (LC)-Applied Biosystems/MDS Sciex API 3200 QTrap or API 4000 QTrap tandem-mass spectrometer (MS/MS) as described earlier. The use of heptafluorobutyric acid (HFBA) mobile phase modifier as an ion-pairing agent increases the overall lipophilicity and volatility, which increases the retention and ionization efficiency of the analytes, affording an abundance of HFBA-associated ions. […] (OH)FeTnBuOE-2-PyP^4+ was prepared as described for other Fe(III) N-alkylpyridylporphyrins and analogous (H2O)MnTnBuOE-2-PyP^5+ [13, 16]. The solvents employed were: A = 95:5 H2O:MeCN (0.1% HFBA); B = MeCN (0.1% HFBA). […] With the chosen solvent system, all four atropoisomers collapsed into a single peak, enhancing the sensitivity of the method to as low as 0.5 nM (nanomoles per L of tissue homogenate). Analyses were performed using a Phenomenex Luna C18 guard cartridge (ID × L, 2 × 4 mm) only. […] Their structures are also shown. […] The response was calculated as the ratio between the standard peak area and the internal standard peak area. We conducted a 7-day rat PK study under conditions identical to those that afforded the therapeutic efficacy of MnTnHex-2-PyP^5+ in an earlier study. […] Afterwards, blood/plasma samples were collected before injection and at 2 h after 24 h-injections (every second injection). Liver and brains were taken for analysis 12 h after the last injection. Three rats were used per compound. After the single (first) SC injection, we obtained a prototypical PK profile observed in the case of all Mn(III) ortho […] In contrast, although similarly absorbed after SC injection, the […] Our understanding is that the “elimination” process is actually a fast distribution/retention into/by the liver, kidney, and spleen, a multi-compartmental process responsible for early decay of the plasma concentration, observed for all Mn porphyrin analogs investigated.

mice [7] = details: mice, 5 mg/kg IP injection; cited from earlier work
[8] = 2-h PK study in rats that underwent MCAO; assay type: in vivo; details: rats after 90-min MCAO, 0.225 mg/kg IV + 0.225 mg/kg SC, 2 h after reperfusion
Experimental: Samples were prepared as described in [10] with modifications to accommodate the small tissue sizes and enhance the detection sensitivity. Quantitative liquid chromatography electrospray-ionization tandem mass spectrometry (LCMS/MS) analysis was performed on a Shimadzu 20A series HPLC (LC)-Applied Biosystems/MDS Sciex API 3200 QTrap or API 4000 QTrap tandem-mass spectrometer (MS/MS) as described earlier. The use of heptafluorobutyric acid (HFBA) mobile phase modifier as an ion-pairing agent increases the overall lipophilicity and volatility, which increases the retention and ionization efficiency of the analytes, affording an abundance of HFBA-associated ions. […] (OH)FeTnBuOE-2-PyP^4+ was prepared as described for other Fe(III) N-alkylpyridylporphyrins and analogous (H2O)MnTnBuOE-2-PyP^5+ [13, 16]. The solvents employed were: A = 95:5 H2O:MeCN (0.1% HFBA); B = MeCN (0.1% HFBA). […] With the chosen solvent system, all four atropoisomers collapsed into a single peak, enhancing the sensitivity of the method to as low as 0.5 nM (nanomoles per L of tissue homogenate). Analyses were performed using a Phenomenex Luna C18 guard cartridge (ID × L, 2 × 4 mm) only. […] Their structures are also shown. […] The response was calculated as the ratio between the standard peak area and the internal standard peak area. Another possible cause for the failure of therapeutics in stroke may be their slow accumulation in the brain, i.e., not being there in time to prevent the burst of reactive species and rapid activation of transcription factors, which perpetuate oxidative stress. We therefore conducted short-term 2-h PK to evaluate how fast post-MCAO our drug gets into the brain. Three rats per compound were subjected to 90 min of transient right MCAO as reported. The first dose of 0.225 mg/kg was given IV via the […] at 5 min after ischemia/reperfusion. The second dose of 0.225 mg/kg was given SC at 30 min after reperfusion. Blood was collected at 2 h and plasma harvested. Rats were perfused with heparin saline (2000 IU/500 mL) until no reddish fluid came out from the right atrium. Then, the liver, and left and right brain were collected and placed on dry ice and stored at -20 °C. Plasma, liver, and brain were analyzed by LCMS/MS.

[9] = SC 0.225 mg/kg BID 7 days, 12 h after last injection
[10] = SC 0.225 mg/kg BID 7 days, WinNonlin simulation

## CCCCCC[n+]1ccccc1-c1c2nc(c(-c3cccc[n+]3CCCCCC)c3ccc([n-]3)c(-c3cccc[n+]3CCCCCC)c3nc(c(-c4cccc[n+]4CCCCCC)c4ccc1[n-]4)C=C3)C=C2.[Mn+3] [MnHex, Mn(III) meso-tetrakis(N-n-hexylpyridinium-2-yl)porphyrin]
[1]
  log kcat(O2^•−), log of rate constant for catalysis of O2^•− dismutation: 7.48
[2]
  accumulation in mitochondria relative to cytosol: 3.6 fold
[3]
  blood–brain barrier crossing: crosses the BBB
Rat MCAO stroke model
  p, cortex infarct volume vs vehicle: 0.046
  p, neuroscore vs vehicle: 0.016
  p, subcortex infarct volume vs vehicle: 0.049
  p, total infarct volume vs vehicle: 0.029
Rat MCAO stroke model; first dose IV, then SC
  neurological deficit (neuroscore and infarct volume): significantly improved
[4]
  infarct size in earlier 7-day MCAO study: significantly reduced the infarct size
[4]; rat MCAO stroke model and subarachnoid hemorrhage
  neurologic outcome, infarct size and inflammation: improved the neurologic outcome and decreased infarct size and inflammation
[4]; rat, in vivo
  brain level in earlier 7-day MCAO study: ~ 30 nM
Mice [5]
  blood pressure drop: does cause a blood pressure drop
[6]; SC 0.225 mg/kg BID 7 days
  brain level at end of 7-day treatment: 25 nM
[6]; [9]
  brain concentration at end of 7-day treatment: 25 nM
  end-of-treatment 7-day liver tissue level: 21 µM
[6]; [10]
  average plasma concentration (Caver): 76 nM
  plasma AUC: 11.5 µM·h
[6]; SC 0.225 mg/kg BID 7 days, WinNonlin simulation, read-out: Cmax at steady state, plasma
  Cmax: 220 nM
[6]; SC 0.225 mg/kg, first 12 h
  elimination from plasma after single (first) SC injection: eliminated from plasma within 12 h
[6]; SC 0.225 mg/kg, estimated from simulation, 0.225 mg/kg
  plasma half-life: 1.4 h and ~ 1.4 h
Mice [7]
  toxicity / death of mice: mice died
[8]
  level in injured (right) brain hemisphere: ~ 35 nM
